Source: patent US10004701B2, “Methods and compositions for treating infection” (UNIVERSITY OF ROCHESTER, priority 2012, dated 2018)
Counter-ions that a name gives are not always drawn. Like-named read-outs stand apart in the source and are kept apart here.

Legend:
Assay in all cases: AK assay 384-well format, Prestwick library screening
[1] = tested on: E. faecium; assay type: cell-based, Enterococcus faecium; settings: 50 μM final drug concentration; for fold induction at 50 µM: Enterococcus faecium, 3 h
[2] = tested on: A. baumannii strain 98-37-09; assay type: cell-based, Acinetobacter baumannii; settings: 50 μM final drug concentration; for fold induction at 50 µM: Acinetobacter baumannii, 983709, 3 h
[3] = tested on: S. aureus strain USA300-0114; assay type: cell-based, Staphylococcus aureus; settings: 50 μM final drug concentration; for fold induction at 50 µM: Staphylococcus aureus, USA300, 3 h
[4] = tested on: P. aeruginosa; assay type: cell-based, Pseudomonas aeruginosa; settings: 50 μM final drug concentration; for fold induction at 50 µM: Pseudomonas aeruginosa, 3 h
[5] = tested on: K. pneumoniae; assay type: cell-based, Klebsiella pneumoniae; settings: 50 μM final drug concentration; for fold induction at 50 µM: Klebsiella pneumoniae, 3 h
[6] = tested on: E. cloacae; assay type: cell-based, Enterobacter cloacae; settings: 50 μM final drug concentration; for fold induction at 50 µM: Enterobacter cloacae, 3 h
[7] = tested on: E. coli; assay type: cell-based, Escherichia coli; settings: 50 μM final drug concentration; for fold induction at 50 µM: Escherichia coli, 3 h
[8] = planktonic, cutoff for positive-scoring molecules 3-fold increase, read-out: AK-based Prestwick Library Screening Results, E. faecium (fold increase in extracellular AK activity)
[9] = planktonic, cutoff for positive-scoring molecules 3-fold increase, read-out: AK-based Prestwick Library Screening Results, A. baumannii (fold increase in extracellular AK activity)
[10] = planktonic, cutoff for positive-scoring molecules 3-fold increase, read-out: AK-based Prestwick Library Screening Results, S. aureus (fold increase in extracellular AK activity)
[11] = planktonic, cutoff for positive-scoring molecules 3-fold increase, read-out: AK-based Prestwick Library Screening Results, P. aeruginosa (fold increase in extracellular AK activity)
[12] = planktonic, cutoff for positive-scoring molecules 3-fold increase, read-out: AK-based Prestwick Library Screening Results, K. pneumoniae (fold increase in extracellular AK activity)
[13] = planktonic, cutoff for positive-scoring molecules 3-fold increase, read-out: AK-based Prestwick Library Screening Results, E. cloacae (fold increase in extracellular AK activity)
[14] = planktonic, cutoff for positive-scoring molecules 3-fold increase, read-out: AK-based Prestwick Library Screening Results, E. coli (fold increase in extracellular AK activity)
[15] = cutoff for positive-scoring molecules 3-fold increase, read-out: AK-based Prestwick Library Screening Results, E. faecium (fold increase in extracellular AK activity)
[16] = cutoff for positive-scoring molecules 3-fold increase, read-out: AK-based Prestwick Library Screening Results, A. baumannii (fold increase in extracellular AK activity)
[17] = cutoff for positive-scoring molecules 3-fold increase, read-out: AK-based Prestwick Library Screening Results, S. aureus (fold increase in extracellular AK activity)
[18] = cutoff for positive-scoring molecules 3-fold increase, read-out: AK-based Prestwick Library Screening Results, P. aeruginosa (fold increase in extracellular AK activity)
[19] = cutoff for positive-scoring molecules 3-fold increase, read-out: AK-based Prestwick Library Screening Results, K. pneumoniae (fold increase in extracellular AK activity)
[20] = cutoff for positive-scoring molecules 3-fold increase, read-out: AK-based Prestwick Library Screening Results, E. cloacae (fold increase in extracellular AK activity)
[21] = cutoff for positive-scoring molecules 3-fold increase, read-out: AK-based Prestwick Library Screening Results, E. coli (fold increase in extracellular AK activity)

## C/C(=C(\CCOP(=O)(O)O)SC(=O)c1ccccc1)N(C=O)Cc1cnc(C)nc1N [Benfotiamine]
[1]; [8]
  fold induction at 50 µM: 0.9
[2]; [9]
  fold induction at 50 µM: 0.7
[3]; [10]
  fold induction at 50 µM: 0.5
[4]; [11]
  fold induction at 50 µM: 0.6
[5]; [12]
  fold induction at 50 µM: 0.6
[6]; [13]
  fold induction at 50 µM: 0.8
[7]; [14]
  fold induction at 50 µM: 0.7

## CCCCOc1cc(C(=O)OCCN(CC)CC)ccc1N [Benoxinate hydrochloride]
[1]; planktonic E. faecium, 384-well, cutoff for positive-scoring molecules 3-fold increase, read-out: AK-based Prestwick Library Screening Results: E. faecium (increase in extracellular AK activity)
  fold induction at 50 µM: 0.9
[2]; planktonic A. baumannii, 384-well, cutoff for positive-scoring molecules 3-fold increase, read-out: AK-based Prestwick Library Screening Results: A. baumannii (increase in extracellular AK activity)
  fold induction at 50 µM: 1.1
[3]; planktonic S. aureus, 384-well, cutoff for positive-scoring molecules 3-fold increase, read-out: AK-based Prestwick Library Screening Results: S. aureus (increase in extracellular AK activity)
  fold induction at 50 µM: 1
[4]; planktonic P. aeruginosa, 384-well, cutoff for positive-scoring molecules 3-fold increase, read-out: AK-based Prestwick Library Screening Results: P. aeruginosa (increase in extracellular AK activity)
  fold induction at 50 µM: 0.9
[5]; planktonic K. pneumoniae, 384-well, cutoff for positive-scoring molecules 3-fold increase, read-out: AK-based Prestwick Library Screening Results: K. pneumoniae (increase in extracellular AK activity)
  fold induction at 50 µM: 1
[6]; planktonic E. cloacae, 384-well, cutoff for positive-scoring molecules 3-fold increase, read-out: AK-based Prestwick Library Screening Results: E. cloacae (increase in extracellular AK activity)
  fold induction at 50 µM: 1.4
[7]; planktonic E. coli, 384-well, cutoff for positive-scoring molecules 3-fold increase, read-out: AK-based Prestwick Library Screening Results: E. coli (increase in extracellular AK activity)
  fold induction at 50 µM: 1.3

## O=C(CCCN1CCC(n2c(O)nc3ccccc32)CC1)c1ccc(F)cc1 [Benperidol]
[1]; planktonic E. faecium, cutoff for positive-scoring molecules 3-fold increase, read-out: AK-based Prestwick Library Screening Results, E. faecium (increase in extracellular AK activity)
  fold induction at 50 µM: 1
[2]; planktonic A. baumannii, cutoff for positive-scoring molecules 3-fold increase, read-out: AK-based Prestwick Library Screening Results, A. baumannii (increase in extracellular AK activity)
  fold induction at 50 µM: 0.5
[3]; planktonic S. aureus, cutoff for positive-scoring molecules 3-fold increase, read-out: AK-based Prestwick Library Screening Results, S. aureus (increase in extracellular AK activity)
  fold induction at 50 µM: 0.5
[4]; planktonic P. aeruginosa, cutoff for positive-scoring molecules 3-fold increase, read-out: AK-based Prestwick Library Screening Results, P. aeruginosa (increase in extracellular AK activity)
  fold induction at 50 µM: 0.6
[5]; planktonic K. pneumoniae, cutoff for positive-scoring molecules 3-fold increase, read-out: AK-based Prestwick Library Screening Results, K. pneumoniae (increase in extracellular AK activity)
  fold induction at 50 µM: 0.5
[6]; planktonic E. cloacae, cutoff for positive-scoring molecules 3-fold increase, read-out: AK-based Prestwick Library Screening Results, E. cloacae (increase in extracellular AK activity)
  fold induction at 50 µM: 0.6
[7]; planktonic E. coli, cutoff for positive-scoring molecules 3-fold increase, read-out: AK-based Prestwick Library Screening Results, E. coli (increase in extracellular AK activity)
  fold induction at 50 µM: 0.6

## NC(CO)C(=O)NNCc1ccc(O)c(O)c1O (stereo not drawn) [Benserazide hydrochloride]
[1]; [15]
  fold induction at 50 µM: 0.9
[2]; [16]
  fold induction at 50 µM: 1
[3]; [17]
  fold induction at 50 µM: 1.4
[4]; [18]
  fold induction at 50 µM: 1.1
[5]; [19]
  fold induction at 50 µM: 1.2
[6]; [20]
  fold induction at 50 µM: 1.8
[7]; [21]
  fold induction at 50 µM: 1.3

## NC(=NCc1ccccc1)NC(=O)c1nc(Cl)c(N)nc1N [Benzamil hydrochloride]
[1]; [8]
  fold induction at 50 µM: 1.1
[2]; [9]
  fold induction at 50 µM: 0.6
[3]; [10]
  fold induction at 50 µM: 0.7
[4]; [11]
  fold induction at 50 µM: 0.6
[5]; [12]
  fold induction at 50 µM: 0.6
[6]; [13]
  fold induction at 50 µM: 0.7
[7]; [14]
  fold induction at 50 µM: 0.6

## CC1(C)S[C@@H]2[C@H](NC(=O)Cc3ccccc3)C(=O)N2[C@H]1C(=O)O.CC1(C)S[C@@H]2[C@H](NC(=O)Cc3ccccc3)C(=O)N2[C@H]1C(=O)O.c1ccc(CNCCNCc2ccccc2)cc1 [Benzathine benzylpenicillin]
[1]; planktonic E. faecium, positive cutoff 3-fold increase
  AK-based Prestwick library screening result, E. faecium (fold increase in extracellular AK activity): 1.6
[2]; planktonic A. baumannii, positive cutoff 3-fold increase
  AK-based Prestwick library screening result, A. baumannii (fold increase in extracellular AK activity): 5.9
[3]; planktonic S. aureus, positive cutoff 3-fold increase
  AK-based Prestwick library screening result, S. aureus (fold increase in extracellular AK activity): 1.0
[4]; planktonic P. aeruginosa, positive cutoff 3-fold increase
  AK-based Prestwick library screening result, P. aeruginosa (fold increase in extracellular AK activity): 1.1
[5]; planktonic K. pneumoniae, positive cutoff 3-fold increase
  AK-based Prestwick library screening result, K. pneumoniae (fold increase in extracellular AK activity): 1.0
[6]; planktonic E. cloacae, positive cutoff 3-fold increase
  AK-based Prestwick library screening result, E. cloacae (fold increase in extracellular AK activity): 1.6
[7]; planktonic E. coli, positive cutoff 3-fold increase
  AK-based Prestwick library screening result, E. coli (fold increase in extracellular AK activity): 15.6

## CCc1oc2ccccc2c1C(=O)c1cc(Br)c(O)c(Br)c1 [Benzbromarone]
[1]; planktonic, cutoff for positive 3-fold increase, read-out: AK-based Prestwick Library Screening Results, E. faecium (fold increase in extracellular AK activity)
  fold induction at 50 µM: 1.2
[2]; planktonic, cutoff for positive 3-fold increase, read-out: AK-based Prestwick Library Screening Results, A. baumannii (fold increase in extracellular AK activity)
  fold induction at 50 µM: 1.4
[3]; planktonic, cutoff for positive 3-fold increase, read-out: AK-based Prestwick Library Screening Results, S. aureus (fold increase in extracellular AK activity)
  fold induction at 50 µM: 0.4
[4]; planktonic, cutoff for positive 3-fold increase, read-out: AK-based Prestwick Library Screening Results, P. aeruginosa (fold increase in extracellular AK activity)
  fold induction at 50 µM: 1.5
[5]; planktonic, cutoff for positive 3-fold increase, read-out: AK-based Prestwick Library Screening Results, K. pneumoniae (fold increase in extracellular AK activity)
  fold induction at 50 µM: 0.9
[6]; planktonic, cutoff for positive 3-fold increase, read-out: AK-based Prestwick Library Screening Results, E. cloacae (fold increase in extracellular AK activity)
  fold induction at 50 µM: 1.4
[7]; planktonic, cutoff for positive 3-fold increase, read-out: AK-based Prestwick Library Screening Results, E. coli (fold increase in extracellular AK activity)
  fold induction at 50 µM: 1.1

## CCOC(=O)c1ccc(N)cc1 [Benzocaine]
[1]; [15]
  fold induction at 50 µM: 1
[2]; [16]
  fold induction at 50 µM: 1.2
[3]; [17]
  fold induction at 50 µM: 1.2
[4]; [18]
  fold induction at 50 µM: 1.1
[5]; [19]
  fold induction at 50 µM: 0.9
[6]; [20]
  fold induction at 50 µM: 1.6
[7]; [21]
  fold induction at 50 µM: 1.1

## CCCCNc1ccc(C(=O)OCCOCCOCCOCCOCCOCCOCCOCCOCCOC)cc1 [Benzonatate]
[1]; 384-well format, cutoff for positive-scoring molecules 3-fold increase, read-out: AK-based Prestwick Library Screening Results, E. faecium (increase in extracellular AK activity)
  fold induction at 50 µM: 0.8
[2]; 384-well format, cutoff for positive-scoring molecules 3-fold increase, read-out: AK-based Prestwick Library Screening Results, A. baumannii (increase in extracellular AK activity)
  fold induction at 50 µM: 0.7
[3]; 384-well format, cutoff for positive-scoring molecules 3-fold increase, read-out: AK-based Prestwick Library Screening Results, S. aureus (increase in extracellular AK activity)
  fold induction at 50 µM: 0.7
[4]; 384-well format, cutoff for positive-scoring molecules 3-fold increase, read-out: AK-based Prestwick Library Screening Results, P. aeruginosa (increase in extracellular AK activity)
  fold induction at 50 µM: 0.6
[5]; 384-well format, cutoff for positive-scoring molecules 3-fold increase, read-out: AK-based Prestwick Library Screening Results, K. pneumoniae (increase in extracellular AK activity)
  fold induction at 50 µM: 0.6
[6]; 384-well format, cutoff for positive-scoring molecules 3-fold increase, read-out: AK-based Prestwick Library Screening Results, E. cloacae (increase in extracellular AK activity)
  fold induction at 50 µM: 0.7
[7]; 384-well format, cutoff for positive-scoring molecules 3-fold increase, read-out: AK-based Prestwick Library Screening Results, E. coli (increase in extracellular AK activity)
  fold induction at 50 µM: 0.7
